{"source": "BindingDB's records for PubMed 39481228", "about": "(Anhui Medical University)", "key": {"[1]": {"molecular_target": "T1, Cholinesterase (Homo sapiens, UniProt P06276)", "T1 sequence (P06276 whole entry)": "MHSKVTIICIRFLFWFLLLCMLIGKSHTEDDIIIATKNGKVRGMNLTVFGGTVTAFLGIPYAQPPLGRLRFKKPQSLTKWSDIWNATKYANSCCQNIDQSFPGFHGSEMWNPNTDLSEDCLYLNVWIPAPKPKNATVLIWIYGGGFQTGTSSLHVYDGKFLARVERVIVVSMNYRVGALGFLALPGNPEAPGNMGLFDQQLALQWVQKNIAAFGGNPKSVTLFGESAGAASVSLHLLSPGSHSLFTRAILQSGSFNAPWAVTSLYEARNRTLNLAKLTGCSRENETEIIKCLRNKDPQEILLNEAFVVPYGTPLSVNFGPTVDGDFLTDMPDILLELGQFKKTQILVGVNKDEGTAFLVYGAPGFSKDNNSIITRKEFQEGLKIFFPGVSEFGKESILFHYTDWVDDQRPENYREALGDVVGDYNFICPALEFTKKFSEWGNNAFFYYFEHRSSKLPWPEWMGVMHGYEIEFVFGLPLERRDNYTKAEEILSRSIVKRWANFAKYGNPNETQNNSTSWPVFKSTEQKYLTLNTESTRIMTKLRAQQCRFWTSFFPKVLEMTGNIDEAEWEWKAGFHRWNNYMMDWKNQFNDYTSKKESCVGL", "test": "Binding affinity to human BuChE (unknown origin) assessed as overall carbamolyation rate at 100 to 1000 nM incubated for 60 mins"}, "[2]": {"molecular_target": "T1, Cholinesterase", "test": "Binding affinity to human BuChE (unknown origin) assessed as overall carbamolyation rate at 0.025 to 100 uM incubated for 60 mins"}}}
{"smiles": "COc1ccc(C(C)=O)c(OC(=O)N(C)Cc2ccc(F)cc2)c1", "values": [{"measurement": "Ki", "setting": "[1]", "result": 2.8, "unit": "nM"}]}
{"smiles": "COc1ccc(C(C)=O)c(OC(=O)N2CCCCC2)c1", "values": [{"measurement": "Ki", "setting": "[2]", "result": 0.31, "unit": "nM"}]}
